Measurements reported in patent US11925655B2, “FAP-activated therapeutic agents, and uses related thereto” (Bach Biosciences, LLC, priority 2014, dated 2024).
Where two headings read alike, the source gives them in different places.

Columns and labels:
[1] = target: T1, FAP (Homo sapiens, UniProt Q12884); assay: Specificity of activation: digest with FAP; type: biochemical; settings: 100 μM prodrug, 24 hours at 37° C.
T1 sequence (Q12884 1-760): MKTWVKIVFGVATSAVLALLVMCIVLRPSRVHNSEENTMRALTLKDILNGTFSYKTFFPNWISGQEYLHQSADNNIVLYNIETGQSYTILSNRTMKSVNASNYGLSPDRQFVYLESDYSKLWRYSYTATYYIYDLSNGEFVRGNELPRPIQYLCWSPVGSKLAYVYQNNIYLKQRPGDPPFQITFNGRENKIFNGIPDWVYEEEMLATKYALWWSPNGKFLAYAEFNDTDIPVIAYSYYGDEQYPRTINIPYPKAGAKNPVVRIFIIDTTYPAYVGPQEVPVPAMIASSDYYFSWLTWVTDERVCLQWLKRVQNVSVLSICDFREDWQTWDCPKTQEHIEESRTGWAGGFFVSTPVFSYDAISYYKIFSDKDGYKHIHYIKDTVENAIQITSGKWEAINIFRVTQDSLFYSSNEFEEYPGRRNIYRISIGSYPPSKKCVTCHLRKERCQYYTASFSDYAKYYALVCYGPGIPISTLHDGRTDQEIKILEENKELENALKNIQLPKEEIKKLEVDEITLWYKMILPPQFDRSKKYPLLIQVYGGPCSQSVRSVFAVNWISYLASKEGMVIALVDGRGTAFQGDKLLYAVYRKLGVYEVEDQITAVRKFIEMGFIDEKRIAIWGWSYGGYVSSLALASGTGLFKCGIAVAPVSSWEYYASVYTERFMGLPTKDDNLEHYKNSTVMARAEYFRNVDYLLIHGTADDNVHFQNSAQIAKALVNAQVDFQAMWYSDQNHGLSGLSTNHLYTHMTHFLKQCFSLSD
Description: (§1) Total doxorubicin was measured for each assay.

[2] = target: T2, PREP (Homo sapiens, UniProt P48147); assay: Specificity of activation: digest with PREP; type: biochemical; settings: 100 μM prodrug, 24 hours at 37° C.
T2 sequence (P48147 1-710): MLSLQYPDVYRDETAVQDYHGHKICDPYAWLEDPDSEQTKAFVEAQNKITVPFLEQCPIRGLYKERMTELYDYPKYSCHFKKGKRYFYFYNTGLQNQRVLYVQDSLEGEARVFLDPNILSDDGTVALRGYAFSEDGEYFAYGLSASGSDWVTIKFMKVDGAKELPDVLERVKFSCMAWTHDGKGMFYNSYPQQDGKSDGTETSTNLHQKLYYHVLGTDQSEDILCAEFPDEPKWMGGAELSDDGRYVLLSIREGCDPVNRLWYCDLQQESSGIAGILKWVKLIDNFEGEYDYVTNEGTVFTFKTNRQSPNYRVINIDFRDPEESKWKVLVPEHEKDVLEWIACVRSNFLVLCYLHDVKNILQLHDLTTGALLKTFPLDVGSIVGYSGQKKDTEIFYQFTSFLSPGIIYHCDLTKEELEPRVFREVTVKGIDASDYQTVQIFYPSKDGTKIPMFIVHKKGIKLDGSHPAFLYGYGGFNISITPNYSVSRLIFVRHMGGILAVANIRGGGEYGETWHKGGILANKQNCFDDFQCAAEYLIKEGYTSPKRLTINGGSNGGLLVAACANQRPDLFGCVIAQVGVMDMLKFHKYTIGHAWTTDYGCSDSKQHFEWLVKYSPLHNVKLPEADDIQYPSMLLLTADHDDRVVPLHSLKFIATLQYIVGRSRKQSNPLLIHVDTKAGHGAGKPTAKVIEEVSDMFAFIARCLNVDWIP
Description: as §1

[3] = test system: CT26 cells; assay: CellTiter-Blue cell viability assay with CT26 cells; type: cell-based; settings: Mus musculus
[4] = target: dipeptidyl peptidase IV (DPP IV) (Homo sapiens, UniProt P27487); assay: Specificity of activation: digest with DPP IV; type: biochemical; settings: 100 μM prodrug, 24 hours at 37° C.
Description: as §1

[5] = test system: OVCAR-3; assay: CellTiter-Blue cell viability assay: OVCAR-3; type: cell-based; settings: Homo sapiens, 5057DOX assay 5, 72 hour incubation
[6] = test system: SK-OV-3; assay: CellTiter-Blue cell viability assay: SK-OV-3; type: cell-based; settings: Homo sapiens, 5057DOX assay 5, 72 hour incubation
[7] = test system: MCF-7; assay: CellTiter-Blue cell viability assay: MCF-7; type: cell-based; settings: Homo sapiens, MCF7, 5057DOX assay 5, 72 hour incubation
[8] = test system: HEK-Mock cells; assay: CellTiter-Blue cell viability assay with HEK-Mock cells; type: cell-based; settings: Homo sapiens, 72 h
[9] = target: T1, FAP; assay: FAP digest of 5057DOX (kinetics); type: biochemical
[10] = target: T1, FAP; assay: Selectivity of FAP over PREP (5057DOX activation by recombinant enzyme); type: biochemical; settings: 240 nM 5057DOX, 12, 24 or 48 nM recombinant enzyme, 37° C., FIG. 12
Description: Recombinant enzyme (FAP or PREP) was combined, at reaction concentration of 12 nM, 24 nM, or 48 nM, with 240 nM 5057DOX in FAP buffer (50 mM Tris-HCl, pH 7.4, 140 mM NaCl) and incubated at 37° C. Reactions were stopped at 0, 10, 20, or 30 minutes by addition of equal volume of 10 μM Val-boroPro (FAP inhibitor). Doxorubicin was measured by liquid chromatography/mass spectroscopy (LCMS).

[11] = test system: HEK-mFAP cells; assay: CellTiter-Blue cell viability assay with HEK-mFAP cells; type: cell-based, human; settings: Homo sapiens
[12] = Stability in mouse muscle lysate; settings: 100 μM prodrug, 37° C., 12 h
[13] = test system: COc1cccc2c1C(=O)c1c(O)c3c(c(O)c1C2=O)C[C@@](O)(C(=O)CO)C[C@@H]3OC1CC(NC(=O)[C@@H]2CCCN2C(=O)[C@@H](C)NC(=O)c2ccncc2)C(O)C(C)O1; type: biochemical; settings: other: 1.34×10^−8 M FAP, 37° C., pH 7.5
Description: Michaelis-Menten enzyme kinetics for FAP were measured using a SpectraMax M2e microplate reader (Molecular Devices, Sunnyvale, CA, USA). The assays were performed in FAP buffer (50 mM Tris, 140 mM NaCl, pH 7.5) at 25° C., and the fluorescence continuously monitored at excitation and emission wavelengths of 380 and 460 nm, respectively. Kinetic constants (kcat and Km) were determined using GP-AMC (Bachem, Torrance, CA, USA), Ac-(D)-AP-AFC (MP Biomedicals, Solon, OH, USA) and test article concentrations equivalent to 0.1-5 times their respective Km values, and with 5-10 nM enzyme. All assays were performed in triplicate, and the results were calculated with a nonlinear regression analysis, relying on a Michaelis-Menten curve fit using GraphPad software.
3099DOX at various concentrations ranging from 8.5×10^−6 M to 6.9×10^−4 M was incubated with 1.34×10^−8 M FAP or PREP at 37° C., and released doxorubicin measured.

[14] = test system: COc1cccc2c1C(=O)c1c(O)c3c(c(O)c1C2=O)C[C@@](O)(C(=O)CO)C[C@@H]3OC1CC(NC(=O)[C@@H]2CC(F)(F)CN2C(=O)CNC(=O)c2ccnc3ccccc23)C(O)C(C)O1; assay: FAP digest of 5057DOX (kinetics); type: biochemical
[15] = read-out: EC50 (prodrug + 25 nM FAP)
[16] = read-out: EC50 (prodrug + 100 uM 5057)
[17] = other: 5057DOX assay 6, [FAP] 4.00 × 10^−9M
[18] = other: 5057DOX assay 7, [FAP] 1 nM

Sequence of dipeptidyl peptidase IV (DPP IV) (P27487 whole entry, species assumed): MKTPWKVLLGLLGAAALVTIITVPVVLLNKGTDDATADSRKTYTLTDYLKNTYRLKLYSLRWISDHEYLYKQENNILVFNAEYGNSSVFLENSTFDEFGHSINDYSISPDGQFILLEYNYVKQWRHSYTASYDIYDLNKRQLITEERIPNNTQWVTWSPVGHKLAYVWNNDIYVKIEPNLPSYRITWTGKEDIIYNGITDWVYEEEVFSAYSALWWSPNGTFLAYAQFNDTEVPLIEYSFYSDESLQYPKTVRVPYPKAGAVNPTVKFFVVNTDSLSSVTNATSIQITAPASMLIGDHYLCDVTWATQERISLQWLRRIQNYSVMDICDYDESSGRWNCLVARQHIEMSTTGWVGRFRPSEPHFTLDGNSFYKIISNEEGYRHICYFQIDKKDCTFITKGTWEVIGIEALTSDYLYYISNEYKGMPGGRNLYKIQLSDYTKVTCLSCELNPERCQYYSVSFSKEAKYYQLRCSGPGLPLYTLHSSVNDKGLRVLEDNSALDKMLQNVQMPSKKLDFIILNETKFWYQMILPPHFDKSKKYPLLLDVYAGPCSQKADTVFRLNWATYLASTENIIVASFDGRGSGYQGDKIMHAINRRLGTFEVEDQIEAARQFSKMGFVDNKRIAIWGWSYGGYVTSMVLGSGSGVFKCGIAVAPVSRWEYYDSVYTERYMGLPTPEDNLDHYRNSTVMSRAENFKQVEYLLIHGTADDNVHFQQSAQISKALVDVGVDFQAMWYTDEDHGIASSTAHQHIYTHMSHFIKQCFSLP

COc1cccc2c1C(=O)c1c(O)c3c(c(O)c1C2=O)C[C@@](O)(C(=O)CO)C[C@@H]3OC1CC(NC(=O)[C@@H]2CCCN2C(=O)[C@@H](C)NC(=O)[C@H](CO)NC(=O)CCC(=O)O)C(O)C(C)O1 (stereo partly drawn) [Compound 3996DOX]
doxorubicin released by FAP, relative amount ([1]; as much doxorubicin as from the other prodrugs): about 15%
doxorubicin released by PREP [2]: essentially none
EC50 ([3]; read-out: EC50 (prodrug + 50 nM FAP)): 26000 nM
EC50 ([3]; read-out: EC50 (prodrug + 50 nM PREP)): 210000 nM
EC50 ([3]; read-out: EC50 (prodrug alone)): 190000 nM
doxorubicin released by DPP IV [4]: essentially none

COc1cccc2c1C(=O)c1c(O)c3c(c(O)c1C2=O)C[C@@](O)(C(=O)CO)C[C@@H]3O[C@H]1C[C@H](NC(=O)[C@@H]2CC(F)(F)CN2C(=O)CNC(=O)c2ccnc3ccccc23)[C@H](O)[C@H](C)O1 [Compound 5057DOX]
EC50 [5, 15]: 1000 nM
EC50 [5, 16]: > 100000 nM
EC50 ([5]; read-out: EC50 (prodrug alone)): > 100000 nM
EC50 [6, 15]: 140 nM
EC50 [6, 16]: 56000 nM
EC50 ([6]; read-out: EC50 (prodrug alone)): 830 nM
EC50 [7, 15]: 23000 nM
EC50 [7, 16]: > 100000 nM
EC50 ([7]; read-out: EC50 (prodrug alone)): > 100000 nM
EC50 ([8]; 5057DOX assay 1, 72 hour incubation, read-out: EC50 (prodrug + 25 nM FAP)): 36 nM
EC50 ([8]; 5057DOX assay 1, 72 hour incubation, read-out: EC50 (prodrug + 25 nM PREP)): 250 nM
EC50 ([8]; 5057DOX assay 1, 72 hour incubation, read-out: EC50 (prodrug alone)): 480 nM
EC50 ([8]; 5057DOX assay 2, 72 hour incubation, read-out: EC50 (prodrug + 25 nM FAP)): 26 nM
EC50 ([8]; 5057DOX assay 2, 72 hour incubation, read-out: EC50 (prodrug + 25 nM PREP)): 220 nM
EC50 ([8]; 5057DOX assay 2, 72 hour incubation, read-out: EC50 (prodrug + 100 uM 2054-9)): 9800 nM
EC50 ([8]; 5057DOX assay 2, 72 hour incubation, read-out: EC50 (prodrug alone)): 460 nM
EC50 ([8]; 5057DOX assay 3, 72 hour incubation, read-out: EC50 (prodrug + 100 uM 2054-9)): > 10000 nM
EC50 ([8]; 5057DOX assay 3, 72 hour incubation, read-out: EC50 (prodrug + 100 uM 3099-15)): > 100000 nM
EC50 ([8]; 5057DOX assay 3, 72 hour incubation, read-out: EC50 (prodrug alone)): 2300 nM
EC50 ([8]; 5057DOX assay 4, 72 hour incubation, read-out: EC50 (prodrug + 100 uM 5057)): > 100000 nM
EC50 ([8]; 5057DOX assay 4, 72 hour incubation, read-out: EC50 (prodrug alone)): 1100 nM
Kcat(Vmax/[E]) ([9]; 5057DOX assay 6, [FAP] 4.00 × 10^−9M): Kcat(Vmax/[E]) 1.30 sec^−1
Vmax ([9]; 5057DOX assay 7, [FAP] 1 nM, Dox standards, Daunorubicin internal standard): Vmax 9.80 × 10^−10M/sec
activation by FAP as compared to PREP [10]: selectively activated by FAP as compared to PREP
EC50 ([11]; 72 h, 5057DOX assay 2, 72 hour incubation, read-out: EC50 (prodrug + 25 nM PREP)): 110 nM
EC50 ([11]; 72 h, 5057DOX assay 2, 72 hour incubation, read-out: EC50 (prodrug + 100 uM 2054-9)): 740 nM
EC50 ([11]; 72 h, 5057DOX assay 2, 72 hour incubation, read-out: EC50 (prodrug + 100 uM 3099-15)): > 10000 nM
EC50 ([11]; 72 h, 5057DOX assay 2, 72 hour incubation, read-out: EC50 (prodrug alone)): 140 nM
EC50 ([11]; 72 h, 5057DOX assay 3, 72 hour incubation, read-out: EC50 (prodrug + 100 uM 2054-9)): 5300 nM
EC50 ([11]; 72 h, 5057DOX assay 3, 72 hour incubation, read-out: EC50 (prodrug + 100 uM 3099-15)): > 100000 nM
EC50 ([11]; 72 h, 5057DOX assay 3, 72 hour incubation, read-out: EC50 (prodrug alone)): 600 nM
EC50 ([11]; 72 h, 5057DOX assay 4, 72 hour incubation, read-out: EC50 (prodrug + 100 uM 5057)): > 100000 nM
EC50 ([11]; 72 h, 5057DOX assay 4, 72 hour incubation, read-out: EC50 (prodrug alone)): 770 nM
EC50 ([11]; 72 h, 5057DOX assay 8, 72 hour incubation, read-out: EC50 (prodrug + 100 uM 5057)): > 100000 nM
EC50 ([11]; 72 h, 5057DOX assay 8, 72 hour incubation, read-out: EC50 (prodrug alone)): 1100 nM

COc1cccc2c1C(=O)c1c(O)c3c(c(O)c1C2=O)C[C@@](O)(C(=O)CO)C[C@@H]3OC1CC(NC(=O)[C@@H]2CC(F)(F)CN2C(=O)[C@@H](C)NC(=O)c2ccnc3ccccc23)C(O)C(C)O1 (stereo partly drawn) [Compound 5107DOX]
EC50 ([11]; 5107DOX assay, 72 hour incubation, read-out: EC50 (prodrug + 100 uM 5057-2)): > 100000 nM
EC50 ([11]; 5107DOX assay, 72 hour incubation, read-out: EC50 (prodrug alone)): 940 nM

COc1cccc2c1C(=O)c1c(O)c3c(c(O)c1C2=O)C[C@@](O)(C(=O)CO)C[C@@H]3O[C@H]1C[C@H](NC(=O)[C@@H]2CCCN2C(=O)CNC(=O)OCc2ccccc2)[C@H](O)[C@H](C)O1 [z-GP-DOX, reference compound]
doxorubicin released by FAP [1]: A similar amount of doxorubicin was released
doxorubicin released by PREP [2]: A similar amount of doxorubicin was released
doxorubicin released in mouse muscle lysate [12]: a large amount of doxorubicin
doxorubicin released by DPP IV [4]: essentially none

FAP (Homo sapiens)
Km [13]: 11.2 µM
Vmax [13]: 5.877e-09 M/s
kcat [13]: 0.44 s⁻¹
kcat/Km [13]: 39171 M⁻¹ s⁻¹
Km [14, 17]: Km 1.11 × 10^−5M M
Vmax [14, 17]: Vmax 5.19 × 10^−9M/sec M/sec
kcat/Km [14, 17]: kcat/Km 1.17 × 10^5M^−1sec^−1 M^−1sec^−1
Km [14, 18]: Km 4.85 × 10^−6M M
kcat [14, 18]: Kcat 0.98 sec^−1 sec^−1
kcat/Km [14, 18]: Kcat/Km 2.00 × 10^5M^−1 sec^−1 M^−1 sec^−1
